# Assay results: patent US11178871B2, “Herbicidal pyrimidine compounds” (BASF SE, priority 2016, dated 2021)
# Columns and labels:
# Type in all cases: in vivo
# Alopecurus myosuroides = assay: greenhouse test, post-emergence treatment, ALOMY; details: post-emergence
# From the text: (§1) The culture containers used were plastic flowerpots containing loamy sand with approximately 3.0% of humus as the substrate. The seeds of the test plants were sown separately for each species.
# (§2) For the post-emergence treatment, the test plants were first grown to a height of 3 to 15 cm, depending on the plant habit, and only then treated with the active ingredients which had been suspended or emulsified in water. For this purpose, the test plants were either sown directly and grown in the same containers, or they were first grown separately as seedlings and transplanted into the test containers a few days prior to treatment.
# (§3) Depending on the species, the plants were kept at 10-25° C. or 20-35° C., respectively.
# (§4) The test period extended over 2 to 4 weeks. During this time, the plants were tended, and their response to the individual treatments was evaluated.
# (§5) Evaluation was carried out using a scale from 0 to 100. 100 means no emergence of the plants, or complete destruction of at least the aerial moieties, and 0 means no damage, or normal course of growth. A good herbicidal activity is given at values of at least 70 and a very good herbicidal activity is given at values of at least 85.
# (§6) The plants used in the greenhouse experiments were of the following species: […]
# Avena fatua = assay: greenhouse test, post-emergence treatment, AVEFA
# From the text: as §1, §2, §3, §4, §5, §6
# Echinocloa crus-galli [1] = assay: greenhouse test, post-emergence treatment, ECHCG; details: post-emergence
# From the text: as §1, §2, §3, §4, §5, §6
# Apera spica-venti = assay: greenhouse test, pre-emergence treatment, APESV
# From the text: as §1
# (§7) For the pre-emergence treatment, the active ingredients, which had been suspended or emulsified in water, were applied directly after sowing by means of finely distributing nozzles. The containers were irrigated gently to promote germination and growth and subsequently covered with transparent plastic hoods until the plants had rooted. This cover caused uniform germination of the test plants, unless this had been impaired by the active ingredients.
# as §3, §4, §5, §6
# Echinocloa crus-galli [2] = assay: greenhouse test, pre-emergence treatment, ECHCG
# From the text: as §1, §7, §3, §4, §5, §6
SMILES,herbicidal activity (Alopecurus myosuroides; 2000 g/ha),herbicidal activity (Avena fatua; 2000 g/ha),herbicidal activity (Echinocloa crus-galli [1]; 2000 g/ha),herbicidal activity (Apera spica-venti; 2000 g/ha),herbicidal activity (Echinocloa crus-galli [2]; 2000 g/ha),herbicidal activity (Alopecurus myosuroides; 1000 g/ha),herbicidal activity (Avena fatua; 1000 g/ha),herbicidal activity (Echinocloa crus-galli [1]; 1000 g/ha),herbicidal activity (Apera spica-venti; 1000 g/ha),herbicidal activity (Echinocloa crus-galli [2]; 1000 g/ha)
Cc1cc(-c2nc(C3CC3)ncc2-c2ccccc2Br)c(C)o1 [Ex. 237],very good (a very good herbicidal activity is given at values of at least 85),very good (a very good herbicidal activity is given at values of at least 85),very good (a very good herbicidal activity is given at values of at least 85),very good (a very good herbicidal activity is given at values of at least 85),very good (a very good herbicidal activity is given at values of at least 85),–,–,–,–,–
Brc1ccccc1-c1cnc(C2CC2)nc1-c1cnco1 [Ex. 261],–,–,–,–,–,very good (a very good herbicidal activity is given at values of at least 85),very good (a very good herbicidal activity is given at values of at least 85),very good (a very good herbicidal activity is given at values of at least 85),very good (a very good herbicidal activity is given at values of at least 85),very good (a very good herbicidal activity is given at values of at least 85)
COCc1nc(C2CC2)ncc1-c1ccccc1Cl [Ex. 22],–,–,–,–,–,very good (a very good herbicidal activity is given at values of at least 85),very good (a very good herbicidal activity is given at values of at least 85),very good (a very good herbicidal activity is given at values of at least 85),very good (a very good herbicidal activity is given at values of at least 85),–
COC(=O)Cc1nc(C2CC2)ncc1-c1ccccc1Br [Ex. 67],very good (a very good herbicidal activity is given at values of at least 85),very good (a very good herbicidal activity is given at values of at least 85),good (A good herbicidal activity is given at values of at least 70),very good (a very good herbicidal activity is given at values of at least 85),–,–,–,–,–,–
Brc1ccccc1-c1cnc(C2CC2)nc1-c1ccoc1 [Ex. 40],very good (a very good herbicidal activity is given at values of at least 85),very good (a very good herbicidal activity is given at values of at least 85),–,very good (a very good herbicidal activity is given at values of at least 85),very good (a very good herbicidal activity is given at values of at least 85),–,–,–,–,–
COC(=O)C(C)c1nc(C2CC2)ncc1-c1cc(F)ccc1Cl (stereo not drawn) [Ex. 159],very good (a very good herbicidal activity is given at values of at least 85),very good (a very good herbicidal activity is given at values of at least 85),–,good (A good herbicidal activity is given at values of at least 70),good (A good herbicidal activity is given at values of at least 70),–,–,–,–,–
Clc1ccccc1-c1cnc(C2CC2)nc1C=C1CCCC1 [Ex. 128],good (A good herbicidal activity is given at values of at least 70),very good (a very good herbicidal activity is given at values of at least 85),very good (a very good herbicidal activity is given at values of at least 85),very good (a very good herbicidal activity is given at values of at least 85),–,–,–,–,–,–
Fc1ccc(-c2cnc(C3CC3)nc2-c2ccco2)c(Cl)c1 [Ex. 54],–,–,–,–,–,–,very good (a very good herbicidal activity is given at values of at least 85),very good (a very good herbicidal activity is given at values of at least 85),very good (a very good herbicidal activity is given at values of at least 85),–
